Laboratory results taken from US20060058398A1, “Medicinal compositions containing vitamin k's as nerve growth factor potentiator and utilization thereof” (Hisamitsu Pharmaceutical Co., Inc., priority 2002, published 2006).
Like-named read-outs stand apart in the source and are kept apart here.

Legend:
Type in all cases: cell-based
PCD12 cells [1] = assay: Effect of each inhibitor on neurite elongation potentiated by vitamin K's; conditions: 10 μM PD98059 pretreatment, 48 hours incubation (FIG. 4)
Experimental: In order to study the action mechanism of vitamin K's, influence of MAPK kinase inhibitor (PD98059), protein kinase A (PKA) inhibitor, and protein kinase C (PKC) inhibitor (chelerythrine chloride) on the effects for potentiating neurite elongation of vitamin K's in PCD12 cells were studied. Pre-incubation of cells was carried out for 1 hour in the presence or in the absence of the inhibitor before treatment of NGF or vitamin K compound. After 48 hours of incubation, the ratio of cells having neurites was examined.

PCD12 cells [2] = assay: Bioassay for neurite elongation (potentiation of NGF activity); conditions: for number of cells having neurites (morphological change): 100 μg/ml together with NGF (10 ng/ml) (FIG. 3); for effect of potentiating neurite elongation compared with the negative control group added with NGF 10 ng/ml: 100 μg/ml vitamin K, 48 hours incubation, ratio of cells having neurites (FIG. 1); for effect of potentiating neurite elongation in PCD12 cells: 100 μg/ml, in the presence of low dose of NGF (0-50 ng/ml) (FIG. 1)
Experimental: Cells (PCD12 cells) were harvested and plated on a complete medium of collagen-coating tissue incubation dish in the density of 1.3×10^4 cells/cm^2. […] After 48 hours of incubation, the ratio of cells having neurites was examined using a phase-contrast microscope under ×200 magnification. […] Each measurement in the data is the mean value calculated from examining random 6 […] duplicate experiments, whereby at least 100 cells/point was counted for calculation.

PCD12 cells [3] = test system: PCD12 cells
Experimental: Cells (PCD12 cells) were harvested and plated on a complete medium of collagen-coating tissue incubation dish in the density of 1.3×10^4 cells/cm^2. After 24 hours, NGF (0-50 ng/ml) and 100 μg/ml (the maximum concentration wherein toxicity against PCD12 cells is not observed) of vitamin K1 or vitamin K2 (n=4) were added to the cells.

| Compound | inhibition of the potentiation of vitamin K's (PCD12 cells [1]) | number of cells having neurites (morphological change) (PCD12 cells [2]) | effect of potentiating neurite elongation compared with the negative control group added with NGF 10 ng/ml (PCD12 cells [2]) | effect of potentiating neurite elongation in PCD12 cells (PCD12 cells [2]) | maximum concentration wherein toxicity against PCD12 cells is not observed (PCD12 cells [3]; rat) [µg/mL] | maximum concentration wherein toxicity against PCD12 cells is not observed (PCD12 cells [3]) [µg/mL] |
| --- | --- | --- | --- | --- | --- | --- |
| COc1cccc(-c2cc(=O)c3ccccc3o2)c1N [PD98059] | almost completely inhibited | – | – | – | – | – |
| CC1=C(C/C=C(\C)CCC[C@H](C)CCC[C@H](C)CCCC(C)C)C(=O)c2ccccc2C1=O [vitamin K1, phylloquinone] | – | remarkably increased | about 1.8 times | confirmed | 100 | – |
| menaquinone [vitamin K2] | – | remarkably increased | about 2.4 times | confirmed | – | 100 |
